Assay results taken from ChEMBL document CHEMBL1649265, “Antimicrobial susceptibilities of Mycoplasma genitalium strains examined by broth dilution and quantitative PCR” (2009).
In brackets after ≈: the same amount, converted by molar mass.

What was measured:
Type in all cases: functional
Mycoplasma genitalium [1] = assay: Antibacterial activity against Mycoplasma genitalium G37 by broth dilution method; details: Mycoplasmoides genitalium, read-out: MIC
Mycoplasma genitalium [2] = assay: Antibacterial activity against Mycoplasma genitalium M6257 by broth dilution method; details: Mycoplasmoides genitalium
Mycoplasma genitalium [3] = assay: Antibacterial activity against Mycoplasma genitalium R32 by broth dilution method; details: Mycoplasmoides genitalium, read-out: MIC
Mycoplasma genitalium [4] = assay: Antibacterial activity against Mycoplasma genitalium by quantitative TaqMan PCR method; details: Mycoplasmoides genitalium
Mycoplasma genitalium [5] = assay: Antibacterial activity against Mycoplasma genitalium M6283 by broth dilution method; details: Mycoplasmoides genitalium
Mycoplasma genitalium [6] = assay: Antibacterial activity against Mycoplasma genitalium M30 by broth dilution method; details: Mycoplasmoides genitalium, read-out: MIC
Mycoplasma genitalium [7] = assay: Antibacterial activity against Mycoplasma genitalium TW10-6G by broth dilution method; details: Mycoplasmoides genitalium, read-out: MIC
Mycoplasma genitalium [8] = assay: Antibacterial activity against Mycoplasma genitalium M2282 by broth dilution method; details: Mycoplasmoides genitalium
Mycoplasma genitalium [9] = assay: Antibacterial activity against Mycoplasma genitalium M6287 by broth dilution method; details: Mycoplasmoides genitalium
Mycoplasma genitalium [10] = assay: Antibacterial activity against Mycoplasma genitalium by broth dilution method; details: Mycoplasmoides genitalium; for MIC50: read-out: MIC50; for MIC90: read-out: MIC90
Mycoplasma genitalium [11] = assay: Antibacterial activity against Mycoplasma genitalium TW10-5G by broth dilution method; details: Mycoplasmoides genitalium, read-out: MIC
Mycoplasma genitalium [12] = assay: Antibacterial activity against Mycoplasma genitalium M2341 by broth dilution method; details: Mycoplasmoides genitalium
Mycoplasma genitalium [13] = assay: Antibacterial activity against Mycoplasma genitalium M6328 by broth dilution method; details: Mycoplasmoides genitalium
Mycoplasma genitalium [14] = assay: Antibacterial activity against Mycoplasma genitalium M6284 by broth dilution method; details: Mycoplasmoides genitalium
Mycoplasma genitalium [15] = assay: Antibacterial activity against Mycoplasma genitalium TW48-5G by broth dilution method; details: Mycoplasmoides genitalium, read-out: MIC
Mycoplasma genitalium [16] = assay: Antibacterial activity against Mycoplasma genitalium M6282 by broth dilution method; details: Mycoplasmoides genitalium
Mycoplasma genitalium [17] = assay: Antibacterial activity against Mycoplasma genitalium M6151 by broth dilution method; details: Mycoplasmoides genitalium
Mycoplasma genitalium [18] = assay: Antibacterial activity against Mycoplasma genitalium M6285 by broth dilution method; details: Mycoplasmoides genitalium
Mycoplasma genitalium [19] = assay: Antibacterial activity against Mycoplasma genitalium M6090 by broth dilution method; details: Mycoplasmoides genitalium
Mycoplasma genitalium [20] = assay: Antibacterial activity against Mycoplasma genitalium M6286 by broth dilution method; details: Mycoplasmoides genitalium
Mycoplasma genitalium [21] = assay: Antibacterial activity against Mycoplasma genitalium M6280 by broth dilution method; details: Mycoplasmoides genitalium
Mycoplasma genitalium [22] = assay: Antibacterial activity against Mycoplasma genitalium M2300 by broth dilution method; details: Mycoplasmoides genitalium
Mycoplasma genitalium [23] = assay: Antibacterial activity against Mycoplasma genitalium M2321 by broth dilution method; details: Mycoplasmoides genitalium
Mycoplasma genitalium [24] = assay: Antibacterial activity against Mycoplasma genitalium UTMB-10G by broth dilution method; details: Mycoplasmoides genitalium, read-out: MIC

| SMILES | MIC (Mycoplasma genitalium [1]) [µg/mL] | MIC (Mycoplasma genitalium [2]) [µg/mL] | MIC (Mycoplasma genitalium [3]) [µg/mL] | MIC50 (Mycoplasma genitalium [4]) [µg/mL] | MIC90 (Mycoplasma genitalium [4]) [µg/mL] | MIC (Mycoplasma genitalium [5]) [µg/mL] | MIC (Mycoplasma genitalium [6]) [µg/mL] | MIC (Mycoplasma genitalium [7]) [µg/mL] | MIC (Mycoplasma genitalium [8]) [µg/mL] | MIC (Mycoplasma genitalium [9]) [µg/mL] | MIC50 (Mycoplasma genitalium [10]) [µg/mL] | MIC90 (Mycoplasma genitalium [10]) [µg/mL] | MIC (Mycoplasma genitalium [11]) [µg/mL] | MIC (Mycoplasma genitalium [12]) [µg/mL] | MIC (Mycoplasma genitalium [13]) [µg/mL] | MIC (Mycoplasma genitalium [14]) [µg/mL] | MIC (Mycoplasma genitalium [15]) [µg/mL] | MIC (Mycoplasma genitalium [16]) [µg/mL] | MIC (Mycoplasma genitalium [17]) [µg/mL] | MIC (Mycoplasma genitalium [18]) [µg/mL] | further results |
| --- | --- | --- | --- | --- | --- | --- | --- | --- | --- | --- | --- | --- | --- | --- | --- | --- | --- | --- | --- | --- | --- |
| COc1c(N2CCNC(C)C2)c(F)cc2c(=O)c(C(=O)O)cn(C3CC3)c12 (configuration not stated) [GATIFLOXACIN] | 0.125 (≈ 0.333 µM) | 0.031 (≈ 0.0826 µM) | 0.125 (≈ 0.333 µM) | 0.5 (≈ 1.33 µM) | 0.5 (≈ 1.33 µM) | 0.031 (≈ 0.0826 µM) | 0.125 (≈ 0.333 µM) | 0.125 (≈ 0.333 µM) | 0.031 (≈ 0.0826 µM) | 0.031 (≈ 0.0826 µM) | 0.25 (≈ 0.666 µM) | 0.25 (≈ 0.666 µM) | 0.125 (≈ 0.333 µM) | 0.031 (≈ 0.0826 µM) | 0.031 (≈ 0.0826 µM) | 0.031 (≈ 0.0826 µM) | 0.125 (≈ 0.333 µM) | 0.031 (≈ 0.0826 µM) | 0.031 (≈ 0.0826 µM) | 0.031 (≈ 0.0826 µM) | MIC (Mycoplasma genitalium [19]): 0.031 µg/mL (≈ 0.0826 µM); MIC (Mycoplasma genitalium [20]): 0.031 µg/mL (≈ 0.0826 µM); MIC (Mycoplasma genitalium [21]): 0.031 µg/mL (≈ 0.0826 µM); MIC (Mycoplasma genitalium [22]): 0.031 µg/mL (≈ 0.0826 µM); MIC (Mycoplasma genitalium [23]): 0.031 µg/mL (≈ 0.0826 µM); MIC (Mycoplasma genitalium [24]): 0.125 µg/mL (≈ 0.333 µM) |
| CCn1cc(C(=O)O)c(=O)c2cc(F)c(N3CCNCC3)cc21 [NORFLOXACIN] | 0.032 (≈ 0.1 µM) | 0.001 (≈ 0.00313 µM) | 0.032 (≈ 0.1 µM) | ≥ 8 | ≥ 8 | 0.001 (≈ 0.00313 µM) | 0.032 (≈ 0.1 µM) | 0.032 (≈ 0.1 µM) | 0.001 (≈ 0.00313 µM) | 0.001 (≈ 0.00313 µM) | 0.032 (≈ 0.1 µM) | 0.064 (≈ 0.2 µM) | 0.032 (≈ 0.1 µM) | 0.001 (≈ 0.00313 µM) | 0.001 (≈ 0.00313 µM) | 0.001 (≈ 0.00313 µM) | 0.032 (≈ 0.1 µM) | 0.001 (≈ 0.00313 µM) | 0.001 (≈ 0.00313 µM) | 0.001 (≈ 0.00313 µM) | MIC (Mycoplasma genitalium [19]): 0.001 µg/mL (≈ 0.00313 µM); MIC (Mycoplasma genitalium [20]): 0.001 µg/mL (≈ 0.00313 µM); MIC (Mycoplasma genitalium [21]): 0.001 µg/mL (≈ 0.00313 µM); MIC (Mycoplasma genitalium [22]): 0.001 µg/mL (≈ 0.00313 µM); MIC (Mycoplasma genitalium [23]): 0.001 µg/mL (≈ 0.00313 µM); MIC (Mycoplasma genitalium [24]): 0.032 µg/mL (≈ 0.1 µM) |
